For one assay, the system named is XBP1. Nature of the assay: Cellular XBP1 splicing assay (NanoLuc luciferase reporter). It is filed as cell-based. Conditions: Homo sapiens; ARPE-19 cells stably expressing XBP1-nano-luciferase; thapsigargin 150 nM, 4 hour incubation. On the procedure:
ARPE-19 cells stably expressing XBP1 (a.a. 1-376) with nano-luciferase gene sequence linked so it is in frame when XBP1 is spliced, were cultured in F12 media, 10 % FBS, 0.044% sodium bicarbonate, 150 µg/ml hygromycin B and seeded for assays at 5,000 cells in 384 well plates in culture media without hygromycin B and incubated at 37° C./5% CO2. After overnight incubation test compounds were added to the cell plate in a 10-point ½ log dilution series in duplicate (final DMSO concentration 0.117 %). After further incubation of 30 minutes thapsigargin was added (final concentration 150 nM) and then another 4 hour incubation. A NanoLuc luciferase assay (Promega) was used according to the manufacturer’s instructions to detect the luciferase and luminescence measured on a luminometer (EnVision, PerkinElmer). IC50 values calculated by fitting a sigmoidal curve to percent inhibition of control of compound concentration.

In a further assay the target is IRE1α RNase (Homo sapiens (Human), UniProt O75460). As to the kind of experiment: Inhibition of RNase activity of IRE1α. It is filed as biochemical. As to conditions: 0.325 nM enzyme, 100 nM substrate, 20 minutes at room temperature. On the procedure: The RNase reactions were performed in 384 well black ProxiPlate-384 Plus plates (PERKIN Elmer) using 50 mM Tris assay buffer with 0.5 mM MgCl2, 10 mM KCl, 0.03 % Tween, 2 mM DTT and 1% DMSO. Test compounds were prepared on the day of assay and dispensed using D300 digital dispenser as a 10-point ½ log dilution series in duplicate, normalized to a final DMSO concentration of […]. Test compounds were pre-incubated for 30 min at room temperature with IRE1α kinase (E31-11G from Signal Chem) in 2.5 µL of assay buffer. Then 2.5 µl of assay buffer containing substrate (5′ Alexa Fluor 647 - rCrArUrGrUrC rCrGrCrArGrCrGrCrArUrG - Iowa Black RQ quencher 3′) (SEQ ID NO:1) added, giving a final concentration of enzyme of 0.325 nM and of substrate of 100 nM. After 20 minutes incubation at room temperature the reactions were stopped by added 5 µL of 5 M urea, incubated at room temperature for 10 minutes and fluorescence measured on a plate reader (EnVision, PerkinElmer). IC50 values calculated by fitting a sigmoidal curve to percent inhibition of control versus compound concentration.
Chain of IRE1α RNase (O75460 468-977): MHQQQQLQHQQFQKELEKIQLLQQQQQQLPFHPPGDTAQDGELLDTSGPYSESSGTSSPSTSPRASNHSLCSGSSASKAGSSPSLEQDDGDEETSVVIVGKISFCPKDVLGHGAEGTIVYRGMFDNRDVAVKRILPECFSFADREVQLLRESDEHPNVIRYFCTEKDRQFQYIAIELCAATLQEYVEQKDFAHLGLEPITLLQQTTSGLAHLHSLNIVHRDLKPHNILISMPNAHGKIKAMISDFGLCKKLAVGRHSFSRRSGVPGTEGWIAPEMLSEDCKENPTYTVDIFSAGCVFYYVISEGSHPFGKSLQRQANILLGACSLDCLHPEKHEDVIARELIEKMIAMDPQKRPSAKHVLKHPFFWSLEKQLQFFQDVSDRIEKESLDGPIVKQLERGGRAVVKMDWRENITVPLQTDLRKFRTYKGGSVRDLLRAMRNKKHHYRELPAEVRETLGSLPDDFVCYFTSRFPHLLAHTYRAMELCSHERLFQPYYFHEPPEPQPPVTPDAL

The target in a further assay is IRE1α kinase (Homo sapiens (Human), UniProt O75460). As to the kind of experiment: Inhibition of kinase activity of IRE1α (ADP-Glo). It is filed as biochemical. As to conditions: 5 nM IRE1α kinase, 100 µM ATP, 4 hours at room temperature. On the procedure: The kinase reactions were performed in 384 well white ProxiPlate-384 Plus plates (PERKIN Elmer 6008280) using 25 mM MOPS assay buffer with 1 mM dithiothreitol, 25 mM MgCl2, 12.5 mM β-glycerophosphate, 5 mM EGTA, and 50 µg/mL BSA. Test compounds were prepared on the day of assay and dispensed using D300 digital dispenser as a 10-point ½ log dilution series in duplicate, normalized to a final DMSO concentration of 3%. Test compounds were pre-incubated for 30 min at room temperature with 10 nM IRE1α kinase (E31-11G from Signal Chem) in 2.5 µL of assay buffer and the reaction started by addition of 2.5 µL of ATP in assay buffer, to give a final ATP concentration of 100 µm and 5 nM IRE1α kinase. After 4 hours incubation at room temperature the reactions were stopped and the kinase activity determined using the ADP-Glo™ reagent from Promega, according to the manufacturer’s instructions. Luminescence was measured on a luminometer (EnVision, PerkinElmer) and IC50 values calculated by fitting a sigmoidal curve to percent inhibition of control versus Log10 of compound concentration.
Chain of IRE1α kinase (O75460 468-977): as above
A general note: ADP-Glo turns the ADP formed in a reaction into a luminescent signal.

Molecules are shown by their SMILES.

`COCCN[C@H]1CC[C@H](c2cnc(N)c3c(-c4cc(F)c(NS(=O)(=O)c5cc(OC(F)(F)F)ccc5Cl)cc4F)nn(C(C)C)c32)CC1` [Compound A3, N-(4-(4-amino-1-isopropyl-7-((1r,4r)-4-((2-methoxyethyl)amino)cyclohexyl)-1H-pyrazolo[4,3-c]pyridin-3-yl)-2,5-difluorophenyl)-2-chloro-5-(trifluoromethoxy)benzenesulfonamide]: the figures for the IC50 in the assay on XBP1 and at IRE1α RNase were 15 nM and 3.4 nM, respectively. As to `Cc1ccc(F)c(S(=O)(=O)Nc2cc(F)c(-c3nn(C(C)C)c4c3c(N)ncc4[C@H]3CC[C@H](NC[C@H](C)F)CC3)cc2F)c1` [Compound A23, N-(4-(4-amino-7-((1S,4r)-4-(((S)-2-fluoropropyl)amino)cyclohexyl)-1-isopropyl-1H-pyrazolo[4,3-c]pyridin-3-yl)-2,5-difluorophenyl)-2-fluoro-5-methylbenzenesulfonamide], the midpoint of inhibition against IRE1α kinase, the IC50, lay at 1.3 nM. As to `Cc1ccc(F)c(S(=O)(=O)Nc2cc(F)c(-c3nn(C(C)C)c4c3c(N)ncc4[C@H]3CC[C@H](N4CCOCC4)CC3)cc2F)c1` [Compound A12, N-(4-(4-amino-1-isopropyl-7-((1r,4r)-4-morpholinocyclohexyl)-1H-pyrazolo[4,3-c]pyridin-3-yl)-2,5-difluorophenyl)-2-fluoro-5-methylbenzenesulfonamide], the results for the concentration for half-maximal inhibition (IC50) in the assay on XBP1, at IRE1α RNase and against IRE1α kinase were 7.7 nM, 3.4 nM and 2.1 nM, respectively.

On to `CCOc1ccc(F)c(S(=O)(=O)Nc2cc(F)c(-c3nn(C(C)C)c4c3c(N)ncc4[C@H]3CC[C@H](NCC(C)(C)OC)CC3)cc2F)c1` [Compound A6, N-(4-(4-amino-1-isopropyl-7-((1r,4r)-4-((2-methoxy-2-methylpropyl)amino)cyclohexyl)-1H-pyrazolo[4,3-c]pyridin-3-yl)-2,5-difluorophenyl)-5-ethoxy-2-fluorobenzenesulfonamide], for which, in the assay on XBP1, the concentration for half-maximal inhibition (IC50) (as a rule, the concentration that gives 50% inhibition) is 6.7 nM. Same read-out and setting: the same measure for `CC(C)n1nc(-c2cc(F)c(NS(=O)(=O)Cc3ccccc3Cl)cc2F)c2c(N)ncc([C@H]3CC[C@H](N4CCOCC4)CC3)c21` [Compound A19, N-(4-(4-amino-1-isopropyl-7-((1r,4r)-4-morpholinocyclohexyl)-1H-pyrazolo[4,3-c]pyridin-3-yl)-2,5-difluorophenyl)-1-(2-chlorophenyl)methanesulfonamide]: 11.1 nM; for `CCOc1ccc(F)c(S(=O)(=O)Nc2cc(F)c(-c3nn(C(C)C)c4c3c(N)ncc4[C@H]3CC[C@H](NC4CC(F)(F)C4)CC3)cc2F)c1` [Compound A7, N-(4-(4-amino-7-((1r,4r)-4-((3,3-difluorocyclobutyl)amino)cyclohexyl)-1-isopropyl-1H-pyrazolo[4,3-c]pyridin-3-yl)-2,5-difluorophenyl)-5-ethoxy-2-fluorobenzenesulfonamide]: 6.1 nM.

On to `CCOc1ccc(F)c(S(=O)(=O)Nc2cc(F)c(-c3nn(C(C)C)c4c3c(N)ncc4[C@H]3CC[C@H](NCC(C)F)CC3)cc2F)c1` (stereo partly shown) [Compound A9, N-(4-(4-amino-7-((1r,4r)-4-((2-fluoropropyl)amino)cyclohexyl)-1-isopropyl-1H-pyrazolo[4,3-c]pyridin-3-yl)-2,5-difluorophenyl)-5-ethoxy-2-fluorobenzenesulfonamide], for which, in the assay with XBP1, 7.5 nM corresponded to half-maximal inhibition (IC50). Turning to `CC(C)n1nc(-c2cc(F)c(NS(=O)(=O)c3ccccc3F)cc2F)c2c(N)ncc([C@H]3CC[C@@H](N4CCOCC4)CC3)c21` [Compound A14, N-(4-(4-amino-1-isopropyl-7-((1s,4s)-4-morpholinocyclohexyl)-1H-pyrazolo[4,3-c]pyridin-3-yl)-2,5-difluorophenyl)-2-fluorobenzenesulfonamide], the half-maximal inhibitory concentration (IC50) in the assay on XBP1 turned out to be 1650 nM; against IRE1α RNase, 466 nM. On to `CC(C)n1nc(-c2cc(F)c(NS(=O)(=O)c3ccccc3F)cc2F)c2c(N)ncc([C@H]3CC[C@H](NCCOC(F)(F)F)CC3)c21` [Compound A8, N-(4-(4-amino-1-isopropyl-7-((1r,4r)-4-((2-(trifluoromethoxy)ethyl)amino)cyclohexyl)-1H-pyrazolo[4,3-c]pyridin-3-yl)-2,5-difluorophenyl)-2-fluorobenzenesulfonamide], for which the figures for the half-maximal inhibitory concentration (IC50) with XBP1 and at IRE1α RNase were 39.3 nM and 17.9 nM, respectively.

On to `[2H]C([2H])([2H])Oc1ccc(F)c(S(=O)(=O)Nc2cc(F)c(-c3nn(C(C)C)c4c3c(N)ncc4[C@H]3CC[C@H](NCCOC)CC3)cc2F)c1` [Compound A2, N-(4-(4-amino-1-isopropyl-7-((1r,4r)-4-((2-methoxyethyl)amino)cyclohexyl)-1H-pyrazolo[4,3-c]pyridin-3-yl)-2,5-difluorophenyl)-2-fluoro-5-(methoxy-d3)benzenesulfonamide], for which the IC50 was determined as 12.2 nM in the assay on XBP1 and 4.8 nM against IRE1α RNase. Turning to `CCOc1ccc(F)c(S(=O)(=O)Nc2cc(F)c(-c3nn(C(C)C)c4c3c(N)ncc4[C@H]3CC[C@H](N4CCOCC4)CC3)cc2F)c1` [Compound A15, N-(4-(4-amino-1-isopropyl-7-((1r,4r)-4-morpholinocyclohexyl)-1H-pyrazolo[4,3-c]pyridin-3-yl)-2,5-difluorophenyl)-5-ethoxy-2-fluorobenzenesulfonamide], the IC50 in the assay with XBP1 was determined as 7.2 nM.

`CC(C)n1nc(-c2cc(F)c(NS(=O)(=O)c3cc(F)ccc3F)cc2F)c2c(N)ncc([C@H]3CC[C@H](N4CCOCC4)CC3)c21` [Compound A16, N-(4-(4-amino-1-isopropyl-7-((1r,4r)-4-morpholinocyclohexyl)-1H-pyrazolo[4,3-c]pyridin-3-yl)-2,5-difluorophenyl)-2,5-difluorobenzenesulfonamide]: the half-inhibitory concentration (IC50) in the assay on XBP1 came out at 26.9 nM. On IRE1α kinase, `Cc1ccc(F)c(S(=O)(=O)Nc2cc(F)c(-c3nn(C(C)C)c4c3c(N)ncc4[C@H]3CC[C@H](NC[C@@H](C)F)CC3)cc2F)c1` [Compound A24, N-(4-(4-amino-7-((1R,4r)-4-(((R)-2-fluoropropyl)amino)cyclohexyl)-1-isopropyl-1H-pyrazolo[4,3-c]pyridin-3-yl)-2,5-difluorophenyl)-2-fluoro-5-methylbenzenesulfonamide] gave a half-maximal inhibitory concentration (IC50) of 0.893 nM. In the case of `COCCN[C@H]1CC[C@H](c2cnc(N)c3c(-c4cc(F)c(NS(=O)(=O)c5cc(C)ccc5F)cc4F)nn(C(C)C)c32)CC1` [Compound A5, N-(4-(4-amino-1-isopropyl-7-((1r,4r)-4-((2-methoxyethyl)amino)cyclohexyl)-1H-pyrazolo[4,3-c]pyridin-3-yl)-2,5-difluorophenyl)-2-fluoro-5-methylbenzenesulfonamide], the 50% inhibitory concentration (IC50) with XBP1 stood at 6.8 nM; on IRE1α RNase it was 3.1 nM.

In the case of `COCCN[C@H]1CC[C@H](c2cnc(N)c3c(-c4cc(F)c(NS(=O)(=O)c5cc(OC(F)F)ccc5Cl)cc4F)nn(C(C)C)c32)CC1` [Compound A1, N-(4-(4-amino-1-isopropyl-7-((1r,4r)-4-((2-methoxyethyl)amino)cyclohexyl)-1H-pyrazolo[4,3-c]pyridin-3-yl)-2,5-difluorophenyl)-2-chloro-5-(difluoromethoxy)benzenesulfonamide], the 50% inhibitory concentration (IC50) in the assay on XBP1 was 14.5 nM; on IRE1α RNase, 2.7 nM. In the same order, the values of `COCCN[C@H]1CC[C@H](c2cnc(N)c3c(-c4cc(F)c(NS(=O)(=O)c5cc(C)ccc5Cl)cc4F)nn(C(C)C)c32)CC1` [Compound A4, N-(4-(4-amino-1-isopropyl-7-((1r,4r)-4-((2-methoxyethyl)amino)cyclohexyl)-1H-pyrazolo[4,3-c]pyridin-3-yl)-2,5-difluorophenyl)-2-chloro-5-methylbenzenesulfonamide] are 3.3 nM and 2.8 nM.

Source of the values: patent publication US20230331719A1, “Pyrazolopyridine Compounds and Methods of Inhibiting IRE1 Using Same” (OPTIKIRA, LLC, priority 2020, published 2023).
